Source: patent publication US9855538B2, “Ultrasonic method and apparatus for producing particles having a controlled size distribution” (The Board of Trustees of the University of Illinois, priority 2013, dated 2018)
Each block holds one molecule with its values, some of them ahead of it.

What was measured:
[1] = Particle size and morphology of drug particles from antisolvent sonocrystallization (optical microscope, SEM, dynamic light scattering); type: physicochemical
Source text: The application of ultrasound to the induction of nucleation of drug crystals is presented in the following examples. The apparatus shown in FIG. 1 was employed for all of the experiments, using a titanium-aluminum alloy flow-through ultrasonic horn (Sonics & Materials VCX750) having a resonance frequency of 20 kHz, a 1 cm^2 tip and an outlet diameter of 4 mm. Horn intensities were calibrated by calorimetry with water. A crystallization tube having an outer diameter (OD) of 13 mm was used in each experiment. Each has different solubility characteristics and consequently its own solvent/antisolvent system. Fine particles of several drug materials, including aspirin (acetylsalicylic acid), acetaminophen (also called paracetamol, the active ingredient in Tylenol), and folic acid (vitamin B9), were prepared by antisolvent sonocrystallization.
Particles were imaged using a Canon PC1015 digital camera attached to a Zeiss Axioskop optical/fluorescence microscope with polarization analyzer or with a Hitachi 4700 SEM. Particle size distributions were measured by dynamic light scattering when possible.

[2] = Solubility of the drug in solvent / antisolvent; type: physicochemical
Source text: The solute employed in the process may be any material for which a suitable solvent and antisolvent may be found. The suitability of a solvent/antisolvent system may be evaluated by comparing the solubility of the solute in the solvent with the solubility of the solute in the antisolvent. For example, the solute may have a first solubility in the solvent and a second solubility in the antisolvent, where a ratio of the first solubility to the second solubility is at least about 10:1, or at least about 100:1. A higher ratio may permit a higher particle yield to be achieved for a given concentration of solute in the solvent. Accordingly, the ratio may also be at least about 200:1 or at least about 400:1, but is typically no higher than about 800:1. As would be recognized by one of ordinary skill in the art, the solubility of solute in a given solvent may be represented in terms of milligrams of solute per milliliter of the solvent (mg/mL), and may be determined by HPLC or gravimetric analysis.

- crystal diameter ([1]; 20% aqueous ammonium hydroxide solvent, acetone antisolvent, by SEM (FIGS. 8A-8B)): about 100 nm
- particle morphology (optical microscope) ([1]; saturated sodium bicarbonate solution, H2SO4 antisolvent, FIGS. 7C-7D): large needles
- particle size (optical microscope) ([1]; saturated sodium bicarbonate solution, HCl antisolvent, FIGS. 7A-7B): too small to resolve optically
- solubility in acetone ([2]; acetone): negligible
- solubility in base ([2]; base (as the folate ion)): dissolves readily
- solubility in water ([2]; neutral to moderately acidic water): very nearly insoluble
- solubility in water ([2]; very low pH): quite soluble
SMILES: Nc1nc2ncc(CNc3ccc(C(=O)N[C@@H](CCC(=O)O)C(=O)O)cc3)nc2c(=O)[nH]1 [Folic acid, folic acid]

- Resultant particle morphology ([1]; antisolvent sonocrystallization, 20 kHz, 15 W, solvent/antisolvent per experiment (Tables 1, 2)): platelike
- crystal length in the largest dimension ([1]; ethanol solution, hexanes as antisolvent, FIGS. 6A and 6B): a few
SMILES: CC(=O)Nc1ccc(O)cc1 [acetaminophen]

- concentration of saturated ethanol solution ([2]; ethanol): about 400 mg/mL
SMILES: CC(=O)Oc1ccccc1C(=O)O [aspirin, acetylsalicylic acid]
